Active and inactive are the calls of the source. The calls are words filed in the database; no cut-off is given here.
Tests used:
[1] = species: Homo sapiens; assay: Inhibition of human CES2A assessed as decrease in residual activity upto 1.6 nM; conditions: time <= 30.0 min
[2] = Sub-acute toxicity in C57BL/6J mouse assessed as change in CREA level at 100 mg/kg/day, po treated for 14 days consecutively; type: organism-based; conditions: in vivo, 336 h, time 14 day
[3] = Sub-acute toxicity in C57BL/6J mouse assessed as abnormality in kidney at 100 mg/kg/day, po treated for 14 days consecutively by H and E staining based analysis; type: organism-based; conditions: in vivo, 336 h, time 14 day
[4] = Inhibition of human pancreatic lipase using DDAO-ol as substrate preincubated for 3 mins followed by substrate addition by fluorescence based assay
[5] = Sub-acute toxicity in C57BL/6J mouse assessed as change in ALB level at 100 mg/kg/day, po treated for 14 days consecutively; type: organism-based; conditions: in vivo, 336 h, time 14 day
[6] = system: Mus musculus; assay: Inhibition of irinotecan-triggered gut toxicity in C57BL/6J mouse bearing tumor cells assessed as intact structures in colon tissue at 25 to 50 mg/kg/day, po treated for 14 days by H and E staining based analysis; type: functional, organism-based; conditions: dose 25-50 mg/kg/day, time 14.0 day
[7] = system: Mus musculus; assay: Inhibition of irinotecan-triggered gut toxicity in C57BL/6J mouse bearing tumor cells assessed as increase in claudin-1 level in colon tissue at 25 to 50 mg/kg/day, po treated for 14 days by immunofluorescence based analysis; type: functional, organism-based; conditions: dose 25-50 mg/kg/day, time 14.0 day
[8] = target: Cholinesterase (Homo sapiens, UniProt P06276); assay: Inhibition of human BuChE using BTCI as substrate incubated for 33 mins by Ellman's method
Sequence of Cholinesterase (P06276 whole entry): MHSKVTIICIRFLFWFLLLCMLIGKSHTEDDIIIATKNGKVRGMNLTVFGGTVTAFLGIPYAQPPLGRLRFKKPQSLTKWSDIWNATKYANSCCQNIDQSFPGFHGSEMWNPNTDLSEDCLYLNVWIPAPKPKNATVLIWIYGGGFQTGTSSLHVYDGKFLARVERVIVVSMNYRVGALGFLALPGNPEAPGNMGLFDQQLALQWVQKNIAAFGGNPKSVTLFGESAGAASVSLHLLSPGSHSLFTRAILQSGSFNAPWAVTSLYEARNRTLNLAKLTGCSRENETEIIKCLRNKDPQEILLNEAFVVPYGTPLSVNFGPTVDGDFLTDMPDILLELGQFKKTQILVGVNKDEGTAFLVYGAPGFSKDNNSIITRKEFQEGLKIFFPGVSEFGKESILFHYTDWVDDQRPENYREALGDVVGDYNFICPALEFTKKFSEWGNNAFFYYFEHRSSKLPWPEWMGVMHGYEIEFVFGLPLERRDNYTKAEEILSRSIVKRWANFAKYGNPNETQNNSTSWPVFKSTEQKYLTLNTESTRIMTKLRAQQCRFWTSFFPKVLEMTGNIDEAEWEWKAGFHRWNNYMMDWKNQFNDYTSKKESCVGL

[9] = target: T1, Cytochrome P450 1A2 (Homo sapiens, UniProt P05177); assay: Inhibition of CYP1A2 in human liver microsomes using phenacetin as substrate upto 10 uM; type: ADME, Microsome
T1 sequence (P05177 whole entry): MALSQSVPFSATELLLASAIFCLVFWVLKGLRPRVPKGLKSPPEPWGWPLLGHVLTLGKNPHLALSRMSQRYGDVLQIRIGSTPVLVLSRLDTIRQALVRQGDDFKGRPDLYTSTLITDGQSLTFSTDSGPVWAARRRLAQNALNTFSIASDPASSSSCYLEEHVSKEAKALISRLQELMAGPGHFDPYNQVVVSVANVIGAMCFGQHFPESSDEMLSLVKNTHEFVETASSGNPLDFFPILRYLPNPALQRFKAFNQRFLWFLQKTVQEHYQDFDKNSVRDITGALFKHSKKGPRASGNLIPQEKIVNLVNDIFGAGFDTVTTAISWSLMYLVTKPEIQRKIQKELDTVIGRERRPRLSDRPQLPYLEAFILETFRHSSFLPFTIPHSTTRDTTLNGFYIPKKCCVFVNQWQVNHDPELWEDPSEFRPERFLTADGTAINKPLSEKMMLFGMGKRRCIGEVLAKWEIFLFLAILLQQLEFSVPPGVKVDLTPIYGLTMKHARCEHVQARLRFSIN

[10] = Apparent permeability across apical to basal side in human Caco-2 cells at 50 uM incubated for 120 mins by UPLC-MS/MS analysis; type: ADME, cell-based
[11] = Permeability across basal to apical side in human Caco-2 cells assessed as cumulative penetration amount at 25 uM incubated for 120 mins by UPLC-MS/MS analysis; type: ADME, cell-based; conditions: caco-2, 2 h
[12] = system: Caco-2; assay: Cytotoxicity against human Caco-2 cells at 100 uM incubated for 24 hrs by CCK8 assay; type: toxicity, cell-based; conditions: caco-2, 24 h
[13] = system: Mus musculus; assay: Inhibition of irinotecan-triggered gut toxicity in C57BL/6J mouse bearing tumor cells assessed as decrease in serum ALT level at 25 to 50 mg/kg/day, po treated for 14 days; type: functional, organism-based; conditions: dose 25-50 mg/kg/day, time 14.0 day
[14] = system: Mus musculus; assay: Inhibition of irinotecan-triggered gut toxicity in C57BL/6J mouse bearing tumor cells assessed as decrease in serum CREA level at 25 to 50 mg/kg/day, po treated for 14 days; type: functional, organism-based; conditions: dose 25-50 mg/kg/day, time 14.0 day
[15] = Apparent permeability across basal to apical side in human Caco-2 cells at 100 uM incubated for 120 mins by UPLC-MS/MS analysis; type: ADME, cell-based
[16] = Permeability across apical to basal side in human Caco-2 cells assessed as cumulative penetration amount at 25 uM incubated for 120 mins by UPLC-MS/MS analysis; type: ADME, cell-based; conditions: caco-2, 2 h
[17] = Inhibition of human CES1A using NLMe as substrate preincubated for 3 mins followed by substrate addition measured after 30 mins by chemiluminescence analysis
[18] = system: Mus musculus; assay: Inhibition of irinotecan-triggered gut toxicity in C57BL/6J mouse bearing tumor cells assessed as increase in body weight at 25 to 50 mg/kg/day, po treated for 14 days; type: functional, organism-based; conditions: dose 25-50 mg/kg/day, time 14.0 day
[19] = Permeability across basal to apical side in human Caco-2 cells assessed as cumulative penetration amount at 50 uM incubated for 120 mins by UPLC-MS/MS analysis; type: ADME, cell-based; conditions: caco-2, 2 h
[20] = Drug distribution in ileum of C57BL/6J mouse at 100 mg/kg, po administered as single dose measured for 0.5 to 3 hrs by UHPLC-Q-Orbitrap HRMS analysis; type: ADME, organism-based; conditions: in vivo, time 0.5-3 hrs
[21] = target: Cytochrome P450 2E1 (Homo sapiens, UniProt P05181); assay: Inhibition of CYP2E1 in human liver microsomes using chlorzoxazone as substrate upto 10 uM; type: ADME, Microsome
Sequence of Cytochrome P450 2E1 (P05181 whole entry): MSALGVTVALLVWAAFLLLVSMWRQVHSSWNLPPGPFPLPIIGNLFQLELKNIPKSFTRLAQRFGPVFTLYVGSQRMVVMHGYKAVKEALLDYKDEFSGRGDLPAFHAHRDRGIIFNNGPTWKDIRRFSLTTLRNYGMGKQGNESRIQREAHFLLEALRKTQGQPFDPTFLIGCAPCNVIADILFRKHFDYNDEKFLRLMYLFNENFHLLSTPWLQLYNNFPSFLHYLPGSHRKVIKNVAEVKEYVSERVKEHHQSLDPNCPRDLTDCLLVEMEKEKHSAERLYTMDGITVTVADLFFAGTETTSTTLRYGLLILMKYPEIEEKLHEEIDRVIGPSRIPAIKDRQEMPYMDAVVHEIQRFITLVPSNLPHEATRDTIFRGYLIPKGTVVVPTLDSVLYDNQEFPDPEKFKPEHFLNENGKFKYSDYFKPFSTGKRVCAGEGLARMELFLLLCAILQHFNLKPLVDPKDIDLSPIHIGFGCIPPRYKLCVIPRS

[22] = system: Mus musculus; assay: Inhibition of irinotecan-triggered gut toxicity in C57BL/6J mouse bearing tumor cells assessed as decrease in TNF-alpha level in colon tissue administered orally treated for 14 days; type: functional, organism-based; conditions: dose 25-50 mg/kg/day, route po, time 14.0 day
[23] = Apparent permeability across basal to apical side in human Caco-2 cells at 25 uM incubated for 120 mins by UPLC-MS/MS analysis; type: ADME, cell-based
[24] = Drug distribution in stomach of C57BL/6J mouse at 100 mg/kg, po administered as single dose measured for 0.5 to 3 hrs by UHPLC-Q-Orbitrap HRMS analysis; type: ADME, organism-based; conditions: in vivo, time 0.5-3 hrs
[25] = Inhibition of human CES2A incubated for 3 mins
[26] = Sub-acute toxicity in C57BL/6J mouse assessed as abnormality in spleen at 100 mg/kg/day, po treated for 14 days consecutively by H and E staining based analysis; type: organism-based; conditions: in vivo, 336 h, time 14 day
[27] = Permeability across apical to basal side in human Caco-2 cells assessed as cumulative penetration amount at 50 uM incubated for 120 mins by UPLC-MS/MS analysis; type: ADME, cell-based; conditions: caco-2, 2 h
[28] = Chemical stability in artificial gastrointestinal fluid at 10 uM measured upto 120 mins by UPLC-MS/MS analysis; type: physicochemical; conditions: 2 h
[29] = Sub-acute toxicity in C57BL/6J mouse assessed as abnormality in gastrointestinal tract at 100 mg/kg/day, po treated for 14 days consecutively by H and E staining based analysis; type: organism-based; conditions: in vivo, 336 h, time 14 day
[30] = Sub-acute toxicity in C57BL/6J mouse assessed as abnormality in liver at 100 mg/kg/day, po treated for 14 days consecutively by H and E staining based analysis; type: organism-based; conditions: in vivo, 336 h, time 14 day
[31] = system: Mus musculus; assay: Inhibition of irinotecan-triggered gut toxicity in C57BL/6J mouse bearing tumor cells assessed as increase in ZO-1 level in colon tissue at 25 to 50 mg/kg/day, po treated for 14 days by immunofluorescence based analysis; type: functional, organism-based; conditions: dose 25-50 mg/kg/day, time 14.0 day

For `CCN(C)C(=O)Oc1ccc(C(=O)N2CCC(Cc3ccccc3)CC2)cc1OC`, the inhibition [1] was “Time-dependent-effect”, the Activity [2] was “Non-toxic” and the Activity [3] was “Non-toxic”. For the same compound, the IC50 [4] was greater than 10 µM, the Activity [5] was “Non-toxic” and the inhibition [6] was “Active”. For the same compound, the inhibition [7] was “Active”, the IC50 [8] was 834 nM and the “inhibition (INH)” value [9] was “Not_active”. For the same compound, the Papp A→B at 2 h, 50 µM [10] was 15.6 ×10⁻⁶ cm/s, the Activity [11] was 2.03 µM and the Activity [12] was “Non-toxic”. For the same compound, the inhibition [13] was “Active”, the inhibition [14] was “Active” and the Papp B→A at 2 h, 100 µM [15] was 7.8 ×10⁻⁶ cm/s. For the same compound, the Activity [16] was 3.17 µM, the IC50 [17] was 2420 nM and the inhibition [18] was “Active”. For the same compound, the Activity [19] was 4.23 µM, the Drug uptake [20] was “Active” and the “inhibition (INH)” value [21] was “Not_active”. For the same compound, the inhibition [22] was “Active”, the Papp B→A at 2 h, 25 µM [23] was 10.1 ×10⁻⁶ cm/s and the Drug uptake [24] was “Active”. The IC50 [25] was 0.69 nM, the Activity [26] was “Non-toxic” and the Activity [27] was 6.31 µM. For the same compound, the Stability [28] was “Stable”, the Activity [29] was “Non-toxic” and the Activity [30] was “Non-toxic”. For the same compound, the inhibition [31] was “Active”.

— ChEMBL document CHEMBL6103648, “AI-Driven Discovery of Highly Specific and Efficacious hCES2A Inhibitors for Ameliorating Irinotecan-Triggered Gut Toxicity” (J Med Chem, 2025)
